Values of other authors in patent US12727761B2, “Dosimetry system for photodynamic anitmicrobial therapy device of infectious keratitis” (UNIVERSITY OF MIAMI, priority 2020, dated 2026).

Legend:
[1] = tested on: keratitis derived Acanthamoeba castellanii
[2] = tested on: fungal and bacterial isolates derived from patients with infectious keratitis; details: Rose Bengal photodynamic antimicrobial therapy (RB-PDAT)
[3] = tested on: corneal infection; details: RB-PDAT as experimental therapy for corneal infection
[4] = tested on: Candida albicans; details: erythrosine-mediated PDT

CN(C)c1ccc2nc3ccc(=[N+](C)C)cc-3sc2c1 [methylene blue]
respiratory activity ([1]; methylene blue-mediated PDT): significantly reduce
effects with traditional Acanthamoeba treatment regimens ([1]; methylene blue-mediated PDT combined with traditional treatment regimens): synergistic effects

O=C([O-])c1c(Cl)c(Cl)c(Cl)c(Cl)c1-c1c2cc(I)c(=O)c(I)c-2oc2c(I)c([O-])c(I)cc12.[Na+].[Na+] [Rose Bengal]
inhibition of fungal and bacterial isolates [2]: fully inhibit
patients who avoided undergoing emergency corneal transplantation [3]: approximately 72%

O=C1OC2(c3ccccc31)c1cc(I)c(O)c(I)c1Oc1c2cc(I)c(O)c1I [erythrosine]
reduction in concentration [4]: 1.97 log10
